Data as given in patent US20180353460A1, “METHODS OF TREATING UROLOGICAL DISORDERS USING SARMs” (priority 2014, published 2018).

System: levator ani muscle
Test: Earlier male rat model with castrate levels of serum testosterone
Type: in vivo
Description: Extensive clinical data related to the use of Compound IX are described below; however, there are both preclinical and clinical data supporting the specific investigation of Compound IX for the treatment of SUI. Among the preclinical findings are that Compound IX has androgenic and anabolic activity in male and female rat models. […] These studies together provide an approximation of the expected effect of Compound IX, since currently there are no data in female models regarding levator ani hypertrophy or stress urinary incontinence. […] Based upon these preclinical and clinical analyses, a significant growth/bulking of the levator ani in females with SUI was anticipated, which may also result in improvements in associated symptoms, and are therefore the focus of the study outlined herein.

## C[C@](O)(COc1ccc(C#N)cc1)C(=O)Nc1ccc(C#N)c(C(F)(F)F)c1 [Compound IX, (S)—N-(4-Cyano-3-(trifluoromethyl)phenyl)-3-(4-cyanophenoxy)-2-hydroxy-2-methylpropanamide]
  hypertrophy of the levator ani muscle: approximately 120 % of an intact male
